Measured values as given in US20260262643A1, “HERBICIDAL BENZOXAZINES” (FMC CORPORATION, priority 2022, published 2026).

How the values were obtained:
[1] = test system: barnyardgrass; experiment: Test A preemergence; type: in vivo, Echinochloa crusgalli; conditions: visual injury after 10 days, 0 to 100 scale, 0 is no effect, 100 is complete control
Method in brief: (§1)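 Plants were grown in loam and sand and treated preemergence or postemergence (one- to two-leaf stage, 2–10 cm) with compound in solvent plus surfactant. Response was scored against untreated controls after 10 greenhouse days, where 0 means no effect and 100 complete control.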

[2] = test system: blackgrass; experiment: Test A preemergence; type: in vivo, Alopecurus myosuroides; conditions: 0 to 100 scale
Method in brief: as §1

[3] = test system: corn; experiment: Test A preemergence; type: in vivo, Zea mays; conditions: 0 to 100 scale
Method in brief: as §1

[4] = test system: foxtail, giant; experiment: Test A preemergence; type: in vivo, Setaria faberi; conditions: 0 to 100 scale
Method in brief: as §1

[5] = test system: kochia; experiment: Test A preemergence; type: in vivo, Bassia scoparia; conditions: 0 to 100 scale
Method in brief: as §1

[6] = test system: oat, wild; experiment: Test A preemergence; type: in vivo, Avena fatua; conditions: 0 to 100 scale
Method in brief: as §1

[7] = test system: pigweed, palmer; experiment: Test A preemergence; type: in vivo, Amaranthus palmeri; conditions: 0 to 100 scale
Method in brief: as §1

[8] = test system: ragweed; experiment: Test A preemergence; type: in vivo, Ambrosia artemisiifolia; conditions: 0 to 100 scale
Method in brief: as §1

[9] = test system: ryegrass, Italian; experiment: Test A preemergence; type: in vivo, Lolium multiflorum; conditions: 0 to 100 scale
Method in brief: as §1

[10] = test system: soybean; experiment: Test A preemergence; type: in vivo, Glycine max; conditions: 0 to 100 scale
Method in brief: as §1

[11] = test system: wheat; experiment: Test A preemergence; type: in vivo, Triticum aestivum; conditions: 0 to 100 scale
Method in brief: as §1

[12] = test system: barnyardgrass; experiment: Test A postemergence; type: in vivo, Echinochloa crusgalli; conditions: postemergence, 10 days; for Barnyardgrass plant response rating: 125 g ai/ha, 0 to 100 scale, 0 no effect, 100 complete control; for Plant response rating, Barnyardgrass: 500 g ai/ha, visual injury, 0 to 100 scale (0 no effect, 100 complete control)
Method in brief: as §1

[13] = test system: blackgrass; experiment: Test A postemergence; type: in vivo, Alopecurus myosuroides; conditions: postemergence, 10 days; for Blackgrass plant response rating: 125 g ai/ha, 0 to 100 scale, 0 no effect, 100 complete control; for Plant response rating, Blackgrass: 500 g ai/ha, visual injury, 0 to 100 scale (0 no effect, 100 complete control)
Method in brief: as §1

[14] = test system: corn; experiment: Test A postemergence; type: in vivo, Zea mays; conditions: postemergence, 10 days; for Corn plant response rating: 125 g ai/ha, 0 to 100 scale, 0 no effect, 100 complete control; for Plant response rating, Corn: 500 g ai/ha, visual injury, 0 to 100 scale (0 no effect, 100 complete control)
Method in brief: as §1

[15] = test system: foxtail, giant; experiment: Test A postemergence; type: in vivo, Setaria faberi; conditions: postemergence, 10 days; for Foxtail, Giant plant response rating: 125 g ai/ha, 0 to 100 scale, 0 no effect, 100 complete control; for Plant response rating, Foxtail, Giant: 500 g ai/ha, visual injury, 0 to 100 scale (0 no effect, 100 complete control)
Method in brief: as §1

[16] = test system: kochia; experiment: Test A postemergence; type: in vivo, Bassia scoparia; conditions: postemergence, 10 days; for Kochia plant response rating: 125 g ai/ha, 0 to 100 scale, 0 no effect, 100 complete control; for Plant response rating, Kochia: 500 g ai/ha, visual injury, 0 to 100 scale (0 no effect, 100 complete control)
Method in brief: as §1

[17] = test system: oat, wild; experiment: Test A postemergence; type: in vivo, Avena fatua; conditions: postemergence, 10 days; for Oat, Wild plant response rating: 125 g ai/ha, 0 to 100 scale, 0 no effect, 100 complete control; for Plant response rating, Oat, Wild: 500 g ai/ha, visual injury, 0 to 100 scale (0 no effect, 100 complete control)
Method in brief: as §1

[18] = test system: pigweed, palmer; experiment: Test A postemergence; type: in vivo, Amaranthus palmeri; conditions: postemergence, 10 days; for Pigweed, Palmer plant response rating: 125 g ai/ha, 0 to 100 scale, 0 no effect, 100 complete control; for Plant response rating, Pigweed, Palmer: 500 g ai/ha, visual injury, 0 to 100 scale (0 no effect, 100 complete control)
Method in brief: as §1

[19] = test system: ragweed; experiment: Test A postemergence; type: in vivo, Ambrosia artemisiifolia; conditions: postemergence, 10 days; for Ragweed plant response rating: 125 g ai/ha, 0 to 100 scale, 0 no effect, 100 complete control; for Plant response rating, Ragweed: 500 g ai/ha, visual injury, 0 to 100 scale (0 no effect, 100 complete control)
Method in brief: as §1

[20] = test system: ryegrass, Italian; experiment: Test A postemergence; type: in vivo, Lolium multiflorum; conditions: postemergence, 10 days; for Ryegrass, Italian plant response rating: 125 g ai/ha, 0 to 100 scale, 0 no effect, 100 complete control; for Plant response rating, Ryegrass, Italian: 500 g ai/ha, visual injury, 0 to 100 scale (0 no effect, 100 complete control)
Method in brief: as §1

[21] = test system: soybean; experiment: Test A postemergence; type: in vivo, Glycine max; conditions: postemergence, 10 days; for Soybean plant response rating: 125 g ai/ha, 0 to 100 scale, 0 no effect, 100 complete control; for Plant response rating, Soybean: 500 g ai/ha, visual injury, 0 to 100 scale (0 no effect, 100 complete control)
Method in brief: as §1

[22] = test system: wheat; experiment: Test A postemergence; type: in vivo, Triticum aestivum; conditions: postemergence, 10 days; for Wheat plant response rating: 125 g ai/ha, 0 to 100 scale, 0 no effect, 100 complete control; for Plant response rating, Wheat: 500 g ai/ha, visual injury, 0 to 100 scale (0 no effect, 100 complete control)
Method in brief: as §1

[23] = test system: galium; experiment: Test A postemergence; type: in vivo, Galium aparine; conditions: postemergence, 10 days; for Galium plant response rating: 125 g ai/ha, 0 to 100 scale, 0 no effect, 100 complete control; for Plant response rating, Galium: 500 g ai/ha, visual injury, 0 to 100 scale (0 no effect, 100 complete control)
Method in brief: as §1

[24] = test system: horseweed; experiment: Test A postemergence; type: in vivo, Erigeron canadensis; conditions: postemergence, 10 days; for Horseweed plant response rating: 125 g ai/ha, 0 to 100 scale, 0 no effect, 100 complete control; for Plant response rating, Horseweed: 500 g ai/ha, visual injury, 0 to 100 scale (0 no effect, 100 complete control)
Method in brief: as §1

[25] = test system: barnyardgrass; experiment: Test B flooded paddy test; type: in vivo, Echinochloa crus-galli; conditions: 250 g ai/ha, Flood, 13 days, 0 to 100 scale (0 no effect, 100 complete control)
Method in brief: (§2)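 2-leaf stage; pots flooded 3 cm over soil; compound dosed into paddy water; depth kept constant. Greenhouse, 13 d. Visual rating vs controls, 0 (no effect)–100 (complete control). Dash = no result.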

[26] = test system: ducksalad; experiment: Test B flooded paddy test; type: in vivo, Heteranthera limosa; conditions: 250 g ai/ha, Flood, 13 days, 0 to 100 scale (0 no effect, 100 complete control)
Method in brief: as §2

[27] = test system: rice; experiment: Test B flooded paddy test; type: in vivo, Oryza sativa; conditions: 250 g ai/ha, Flood, 13 days, 0 to 100 scale (0 no effect, 100 complete control)
Method in brief: as §2

[28] = test system: sedge, umbrella; experiment: Test B flooded paddy test; type: in vivo, Cyperus difformis; conditions: 250 g ai/ha, Flood, 13 days, 0 to 100 scale (0 no effect, 100 complete control)
Method in brief: as §2

[29] = 500 g ai/ha, visual injury after 10 days, 0 is no effect, 100 is complete control

SMILES: CC(C)c1ncn(-c2ccc(OC(F)F)c(C(=O)N3C[C@H](C)Oc4c(Cl)cccc43)c2)n1 [Compound 143]
- Plant response rating, Barnyardgrass ([1]; 125 g ai/ha): 90
- Plant response rating, Barnyardgrass ([1]; 500 g ai/ha): 100
- Plant response rating, Blackgrass ([2]; 125 g ai/ha): 40
- Plant response rating, Blackgrass [2, 29]: 70
- Plant response rating, Corn ([3]; 125 g ai/ha): 10
- Plant response rating, Corn [3, 29]: 40
- Plant response rating, Foxtail, Giant ([4]; 125 g ai/ha): 100
- Plant response rating, Foxtail, Giant [4, 29]: 100
- Plant response rating, Kochia ([5]; 125 g ai/ha): 80
- Plant response rating, Kochia [5, 29]: 100
- Plant response rating, Oat, Wild ([6]; 125 g ai/ha): 60
- Plant response rating, Oat, Wild [6, 29]: 90
- Plant response rating, Pigweed, Palmer ([7]; 125 g ai/ha): 100
- Plant response rating, Pigweed, Palmer [7, 29]: 100
- Plant response rating, Ragweed ([8]; 125 g ai/ha): 30
- Plant response rating, Ragweed [8, 29]: 90
- Plant response rating, Ryegrass, Italian ([9]; 125 g ai/ha): 80
- Plant response rating, Ryegrass, Italian [9, 29]: 90
- Plant response rating, Soybean ([10]; 125 g ai/ha): 100
- Plant response rating, Soybean [10, 29]: 100
- Plant response rating, Wheat ([11]; 125 g ai/ha): 90
- Plant response rating, Wheat [11, 29]: 50
- Barnyardgrass plant response rating [12]: 50
- Plant response rating, Barnyardgrass [12]: 90
- Blackgrass plant response rating [13]: 80
- Plant response rating, Blackgrass [13]: 90
- Corn plant response rating [14]: 90
- Plant response rating, Corn [14]: 90
- Foxtail, Giant plant response rating [15]: 90
- Plant response rating, Foxtail, Giant [15]: 90
- Kochia plant response rating [16]: 90
- Plant response rating, Kochia [16]: 90
- Oat, Wild plant response rating [17]: 10
- Plant response rating, Oat, Wild [17]: 70
- Pigweed, Palmer plant response rating [18]: 60
- Plant response rating, Pigweed, Palmer [18]: 80
- Ragweed plant response rating [19]: 40
- Plant response rating, Ragweed [19]: 70
- Ryegrass, Italian plant response rating [20]: 50
- Plant response rating, Ryegrass, Italian [20]: 80
- Soybean plant response rating [21]: 100
- Plant response rating, Soybean [21]: 100
- Wheat plant response rating [22]: 30
- Plant response rating, Wheat [22]: 40
- Galium plant response rating [23]: 100
- Plant response rating, Galium [23]: 100
- Horseweed plant response rating [24]: 20
- Plant response rating, Horseweed [24]: 50
- Plant response rating, Barnyardgrass [25]: 40
- Plant response rating, Ducksalad [26]: 65
- Plant response rating, Rice [27]: 0
- Plant response rating, Sedge, Umbrella [28]: 98

SMILES: CC(C)c1ncn(-c2ccc(C#N)c(C(=O)N3C[C@H](C)Oc4c(Cl)cccc43)c2)n1 [Compound 140]
- Plant response rating, Barnyardgrass ([1]; 125 g ai/ha): 90
- Plant response rating, Barnyardgrass ([1]; 500 g ai/ha): 90
- Plant response rating, Blackgrass ([2]; 125 g ai/ha): 40
- Plant response rating, Blackgrass [2, 29]: 70
- Plant response rating, Corn ([3]; 125 g ai/ha): 0
- Plant response rating, Corn [3, 29]: 10
- Plant response rating, Foxtail, Giant ([4]; 125 g ai/ha): 90
- Plant response rating, Foxtail, Giant [4, 29]: 100
- Plant response rating, Kochia ([5]; 125 g ai/ha): 80
- Plant response rating, Kochia [5, 29]: 90
- Plant response rating, Oat, Wild ([6]; 125 g ai/ha): 30
- Plant response rating, Oat, Wild [6, 29]: 70
- Plant response rating, Pigweed, Palmer ([7]; 125 g ai/ha): 100
- Plant response rating, Pigweed, Palmer [7, 29]: 100
- Plant response rating, Ragweed ([8]; 125 g ai/ha): 0
- Plant response rating, Ragweed [8, 29]: 30
- Plant response rating, Ryegrass, Italian ([9]; 125 g ai/ha): 50
- Plant response rating, Ryegrass, Italian [9, 29]: 70
- Plant response rating, Soybean ([10]; 125 g ai/ha): 50
- Plant response rating, Soybean [10, 29]: 100
- Plant response rating, Wheat ([11]; 125 g ai/ha): 20
- Plant response rating, Wheat [11, 29]: 50
- Barnyardgrass plant response rating [12]: 50
- Plant response rating, Barnyardgrass [12]: 70
- Blackgrass plant response rating [13]: 70
- Plant response rating, Blackgrass [13]: 80
- Corn plant response rating [14]: 70
- Plant response rating, Corn [14]: 90
- Foxtail, Giant plant response rating [15]: 90
- Plant response rating, Foxtail, Giant [15]: 90
- Kochia plant response rating [16]: 90
- Plant response rating, Kochia [16]: 90
- Oat, Wild plant response rating [17]: 0
- Plant response rating, Oat, Wild [17]: 50
- Pigweed, Palmer plant response rating [18]: 70
- Plant response rating, Pigweed, Palmer [18]: 90
- Ragweed plant response rating [19]: 20
- Plant response rating, Ragweed [19]: 40
- Ryegrass, Italian plant response rating [20]: 40
- Plant response rating, Ryegrass, Italian [20]: 50
- Soybean plant response rating [21]: 100
- Plant response rating, Soybean [21]: 100
- Wheat plant response rating [22]: 30
- Plant response rating, Wheat [22]: 60
- Galium plant response rating [23]: 70
- Plant response rating, Galium [23]: 70
- Horseweed plant response rating [24]: 0
- Plant response rating, Horseweed [24]: 0
- Plant response rating, Barnyardgrass [25]: 20
- Plant response rating, Ducksalad [26]: 40
- Plant response rating, Rice [27]: 0
- Plant response rating, Sedge, Umbrella [28]: 75
